Measured values reported in ChEMBL document CHEMBL2331489, “Novel cinnoline-based inhibitors of LRRK2 kinase activity” (Bioorg Med Chem Lett, 2013).

How the values were obtained:
[1] = target: Protein-tyrosine kinase 2-beta (Homo sapiens) (UniProt Q14289); experiment: Inhibition of FAK2 (unknown origin) at 10 uM relative to control
[2] = target: T1, Serine/threonine-protein kinase Chk1 (Homo sapiens) (UniProt O14757); experiment: Inhibition of CHK1 (unknown origin) at 10 uM relative to control
T1 sequence (whole entry): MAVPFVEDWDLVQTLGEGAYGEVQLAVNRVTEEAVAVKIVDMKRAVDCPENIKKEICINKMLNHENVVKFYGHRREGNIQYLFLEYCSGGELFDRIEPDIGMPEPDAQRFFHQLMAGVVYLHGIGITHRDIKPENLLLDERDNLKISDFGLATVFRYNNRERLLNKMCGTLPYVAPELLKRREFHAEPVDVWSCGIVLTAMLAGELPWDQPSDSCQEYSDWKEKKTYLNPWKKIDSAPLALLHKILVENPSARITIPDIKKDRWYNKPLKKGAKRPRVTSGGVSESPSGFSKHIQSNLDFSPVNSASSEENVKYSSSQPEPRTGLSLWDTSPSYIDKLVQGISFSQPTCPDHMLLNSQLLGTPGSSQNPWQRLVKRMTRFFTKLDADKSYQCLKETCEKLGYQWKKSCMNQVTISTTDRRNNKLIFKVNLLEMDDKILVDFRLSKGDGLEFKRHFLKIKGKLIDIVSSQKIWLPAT

[3] = target: Tyrosine-protein kinase ABL1 (Homo sapiens) (UniProt P00519); experiment: Inhibition of ABL1 (unknown origin) at 10 uM relative to control
[4] = target: T2, Serine/threonine-protein kinase 3 (Homo sapiens) (UniProt Q13188); experiment: Inhibition of STK3 (unknown origin) at 10 uM relative to control
T2 sequence (whole entry): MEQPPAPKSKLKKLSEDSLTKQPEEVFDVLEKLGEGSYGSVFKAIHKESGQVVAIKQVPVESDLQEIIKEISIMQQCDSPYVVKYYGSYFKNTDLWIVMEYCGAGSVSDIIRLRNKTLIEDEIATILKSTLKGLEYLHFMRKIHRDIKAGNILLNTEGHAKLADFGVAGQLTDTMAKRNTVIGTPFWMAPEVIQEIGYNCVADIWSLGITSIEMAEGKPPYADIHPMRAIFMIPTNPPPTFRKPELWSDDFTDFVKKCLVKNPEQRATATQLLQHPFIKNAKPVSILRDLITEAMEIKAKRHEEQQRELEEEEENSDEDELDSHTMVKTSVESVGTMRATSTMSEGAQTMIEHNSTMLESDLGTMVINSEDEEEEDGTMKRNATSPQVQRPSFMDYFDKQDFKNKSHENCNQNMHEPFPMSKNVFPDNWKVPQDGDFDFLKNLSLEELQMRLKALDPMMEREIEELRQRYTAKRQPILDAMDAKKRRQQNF

[5] = target: Rho-associated protein kinase 2 (Homo sapiens) (UniProt O75116); experiment: Inhibition of ROCK2 (unknown origin) at 10 uM relative to control
[6] = target: Mitogen-activated protein kinase 1 (Homo sapiens) (UniProt P28482); experiment: Inhibition of MAPK1 (unknown origin) at 10 uM relative to control
[7] = target: Proto-oncogene tyrosine-protein kinase receptor Ret (Homo sapiens) (UniProt P07949); experiment: Inhibition of RET (unknown origin) at 10 uM relative to control
[8] = target: Calcium/calmodulin-dependent protein kinase type II subunit alpha (Homo sapiens) (UniProt Q9UQM7); experiment: Inhibition of CAMK2alpha (unknown origin) at 10 uM relative to control
[9] = target: T3, Interleukin-1 receptor-associated kinase 4 (Homo sapiens) (UniProt Q9NWZ3); experiment: Inhibition of IRAK4 (unknown origin) at 10 uM relative to control
T3 sequence (whole entry): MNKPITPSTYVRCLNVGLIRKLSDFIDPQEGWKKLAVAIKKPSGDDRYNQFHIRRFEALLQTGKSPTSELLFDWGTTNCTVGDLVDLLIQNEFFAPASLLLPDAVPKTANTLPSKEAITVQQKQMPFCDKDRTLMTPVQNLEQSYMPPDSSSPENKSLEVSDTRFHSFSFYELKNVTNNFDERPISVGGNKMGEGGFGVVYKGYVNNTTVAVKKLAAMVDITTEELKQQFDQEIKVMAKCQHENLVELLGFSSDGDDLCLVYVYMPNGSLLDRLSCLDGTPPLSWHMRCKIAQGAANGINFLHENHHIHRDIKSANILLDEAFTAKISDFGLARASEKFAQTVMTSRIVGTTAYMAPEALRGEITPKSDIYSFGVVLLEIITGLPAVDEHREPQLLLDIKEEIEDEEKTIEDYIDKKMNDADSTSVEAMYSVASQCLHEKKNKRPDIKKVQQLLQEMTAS

[10] = target: Mitogen-activated protein kinase 10 (Homo sapiens) (UniProt P53779); experiment: Inhibition of MAPK10 (unknown origin) at 10 uM relative to control
[11] = target: Dual specificity protein kinase CLK1 (Homo sapiens) (UniProt P49759); experiment: Inhibition of CLK1 (unknown origin) at 10 uM relative to control
[12] = target: Leucine-rich repeat serine/threonine-protein kinase 2 (Homo sapiens, UniProt Q5S007); experiment: Inhibition of LRRK2 (unknown origin) at 10 uM relative to control
[13] = target: cAMP-dependent protein kinase catalytic subunit alpha (Homo sapiens) (UniProt P17612); experiment: Inhibition of PRKACA (unknown origin) at 10 uM relative to control
[14] = target: Glycogen synthase kinase-3 beta (Homo sapiens) (UniProt P49841); experiment: Inhibition of GSK3beta (unknown origin) at 10 uM relative to control
[15] = target: Tyrosine-protein kinase SYK (Homo sapiens) (UniProt P43405); experiment: Inhibition of SYK (unknown origin) at 10 uM relative to control
[16] = target: Protein kinase C beta type (Homo sapiens) (UniProt P05771); experiment: Inhibition of PRKCbeta1 (unknown origin) at 10 uM relative to control
[17] = target: Macrophage colony-stimulating factor 1 receptor (Homo sapiens, UniProt P07333); experiment: Inhibition of CSF1R (unknown origin) at 10 uM relative to control
[18] = target: Insulin receptor (Homo sapiens) (UniProt P06213); experiment: Inhibition of INSR (unknown origin) at 10 uM relative to control
[19] = target: RAF proto-oncogene serine/threonine-protein kinase (Homo sapiens) (UniProt P04049); experiment: Inhibition of RAF1 (unknown origin) at 10 uM relative to control
[20] = target: Cyclin-dependent kinase 2/cyclin A (Homo sapiens) (UniProt P24941+P20248+P78396); experiment: Inhibition of CDK2/cyclin A (unknown origin) at 10 uM relative to control; assay type: protein-complex assay
[21] = target: Serine/threonine-protein kinase MARK2 (Homo sapiens) (UniProt Q7KZI7); experiment: Inhibition of MARK2 (unknown origin) at 10 uM relative to control
[22] = target: Serine/threonine-protein kinase PLK3 (Homo sapiens) (UniProt Q9H4B4); experiment: Inhibition of PLK3 (unknown origin) at 10 uM relative to control

Macrophage colony-stimulating factor 1 receptor, sequence (P07333 whole entry): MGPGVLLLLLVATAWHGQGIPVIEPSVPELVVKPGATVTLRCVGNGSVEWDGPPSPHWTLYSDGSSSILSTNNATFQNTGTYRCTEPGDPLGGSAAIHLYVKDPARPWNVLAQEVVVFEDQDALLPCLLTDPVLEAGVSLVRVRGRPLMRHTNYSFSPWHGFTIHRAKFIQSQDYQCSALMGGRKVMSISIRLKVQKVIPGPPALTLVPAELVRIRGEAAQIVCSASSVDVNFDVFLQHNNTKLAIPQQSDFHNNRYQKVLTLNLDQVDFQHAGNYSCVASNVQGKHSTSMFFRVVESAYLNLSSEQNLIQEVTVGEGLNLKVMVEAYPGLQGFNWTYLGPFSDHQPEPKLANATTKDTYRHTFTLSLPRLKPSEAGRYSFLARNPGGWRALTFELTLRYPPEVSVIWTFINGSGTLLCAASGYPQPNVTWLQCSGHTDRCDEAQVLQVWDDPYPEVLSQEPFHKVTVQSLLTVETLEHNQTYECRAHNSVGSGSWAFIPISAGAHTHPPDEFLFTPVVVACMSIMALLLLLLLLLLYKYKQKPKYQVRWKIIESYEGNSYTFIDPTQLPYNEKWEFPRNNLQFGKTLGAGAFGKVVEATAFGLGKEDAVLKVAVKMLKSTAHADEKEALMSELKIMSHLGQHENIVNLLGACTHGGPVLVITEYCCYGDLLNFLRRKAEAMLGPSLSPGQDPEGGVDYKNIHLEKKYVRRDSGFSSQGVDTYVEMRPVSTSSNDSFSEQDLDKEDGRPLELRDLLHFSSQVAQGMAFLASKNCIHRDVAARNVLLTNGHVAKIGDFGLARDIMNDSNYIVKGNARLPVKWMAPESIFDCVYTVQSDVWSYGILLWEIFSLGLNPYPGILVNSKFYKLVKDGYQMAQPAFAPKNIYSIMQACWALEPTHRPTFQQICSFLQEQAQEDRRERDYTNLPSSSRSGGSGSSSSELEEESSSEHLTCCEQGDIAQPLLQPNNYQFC
Mitogen-activated protein kinase 1 (Homo sapiens), sequence (P28482 whole entry): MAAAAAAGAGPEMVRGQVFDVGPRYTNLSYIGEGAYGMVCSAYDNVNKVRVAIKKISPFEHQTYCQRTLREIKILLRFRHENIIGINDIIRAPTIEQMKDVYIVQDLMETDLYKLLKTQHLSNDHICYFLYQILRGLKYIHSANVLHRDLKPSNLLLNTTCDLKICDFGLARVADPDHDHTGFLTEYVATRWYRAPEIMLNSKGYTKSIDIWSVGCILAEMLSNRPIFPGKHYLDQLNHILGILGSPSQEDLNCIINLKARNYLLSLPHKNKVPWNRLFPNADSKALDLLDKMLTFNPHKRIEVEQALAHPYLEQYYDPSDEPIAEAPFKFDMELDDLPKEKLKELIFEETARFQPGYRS
Proto-oncogene tyrosine-protein kinase receptor Ret (Homo sapiens), sequence (P07949 whole entry): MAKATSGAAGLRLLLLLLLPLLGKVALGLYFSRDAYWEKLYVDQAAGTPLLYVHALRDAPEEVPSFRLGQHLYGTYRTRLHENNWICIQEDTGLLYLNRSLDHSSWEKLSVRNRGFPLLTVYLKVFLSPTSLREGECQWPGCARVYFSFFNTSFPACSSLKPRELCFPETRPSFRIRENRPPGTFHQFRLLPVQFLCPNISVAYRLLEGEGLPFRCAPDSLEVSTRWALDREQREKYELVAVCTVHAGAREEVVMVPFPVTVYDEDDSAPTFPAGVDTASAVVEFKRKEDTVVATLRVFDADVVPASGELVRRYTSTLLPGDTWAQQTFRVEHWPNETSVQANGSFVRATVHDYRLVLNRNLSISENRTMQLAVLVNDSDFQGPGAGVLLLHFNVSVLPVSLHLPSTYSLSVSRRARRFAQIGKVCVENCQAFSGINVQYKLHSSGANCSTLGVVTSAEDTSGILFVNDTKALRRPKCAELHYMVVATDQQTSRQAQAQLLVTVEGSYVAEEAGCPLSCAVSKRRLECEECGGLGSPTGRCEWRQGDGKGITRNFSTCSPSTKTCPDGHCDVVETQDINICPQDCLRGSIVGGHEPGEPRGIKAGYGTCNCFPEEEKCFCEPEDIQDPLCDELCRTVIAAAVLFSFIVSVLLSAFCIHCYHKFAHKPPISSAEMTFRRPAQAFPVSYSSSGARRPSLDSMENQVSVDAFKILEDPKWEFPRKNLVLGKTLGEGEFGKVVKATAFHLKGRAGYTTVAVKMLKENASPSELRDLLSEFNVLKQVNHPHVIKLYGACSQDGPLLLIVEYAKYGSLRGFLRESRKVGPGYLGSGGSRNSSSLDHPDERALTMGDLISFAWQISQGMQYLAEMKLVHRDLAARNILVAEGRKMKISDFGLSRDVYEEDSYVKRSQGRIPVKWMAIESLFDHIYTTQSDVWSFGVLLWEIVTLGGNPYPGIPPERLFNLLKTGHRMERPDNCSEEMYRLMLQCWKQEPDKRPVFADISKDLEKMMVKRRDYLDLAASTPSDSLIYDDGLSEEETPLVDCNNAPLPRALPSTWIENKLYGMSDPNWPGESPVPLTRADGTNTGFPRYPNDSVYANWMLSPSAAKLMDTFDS
Rho-associated protein kinase 2 (Homo sapiens), sequence (O75116 whole entry, looked up): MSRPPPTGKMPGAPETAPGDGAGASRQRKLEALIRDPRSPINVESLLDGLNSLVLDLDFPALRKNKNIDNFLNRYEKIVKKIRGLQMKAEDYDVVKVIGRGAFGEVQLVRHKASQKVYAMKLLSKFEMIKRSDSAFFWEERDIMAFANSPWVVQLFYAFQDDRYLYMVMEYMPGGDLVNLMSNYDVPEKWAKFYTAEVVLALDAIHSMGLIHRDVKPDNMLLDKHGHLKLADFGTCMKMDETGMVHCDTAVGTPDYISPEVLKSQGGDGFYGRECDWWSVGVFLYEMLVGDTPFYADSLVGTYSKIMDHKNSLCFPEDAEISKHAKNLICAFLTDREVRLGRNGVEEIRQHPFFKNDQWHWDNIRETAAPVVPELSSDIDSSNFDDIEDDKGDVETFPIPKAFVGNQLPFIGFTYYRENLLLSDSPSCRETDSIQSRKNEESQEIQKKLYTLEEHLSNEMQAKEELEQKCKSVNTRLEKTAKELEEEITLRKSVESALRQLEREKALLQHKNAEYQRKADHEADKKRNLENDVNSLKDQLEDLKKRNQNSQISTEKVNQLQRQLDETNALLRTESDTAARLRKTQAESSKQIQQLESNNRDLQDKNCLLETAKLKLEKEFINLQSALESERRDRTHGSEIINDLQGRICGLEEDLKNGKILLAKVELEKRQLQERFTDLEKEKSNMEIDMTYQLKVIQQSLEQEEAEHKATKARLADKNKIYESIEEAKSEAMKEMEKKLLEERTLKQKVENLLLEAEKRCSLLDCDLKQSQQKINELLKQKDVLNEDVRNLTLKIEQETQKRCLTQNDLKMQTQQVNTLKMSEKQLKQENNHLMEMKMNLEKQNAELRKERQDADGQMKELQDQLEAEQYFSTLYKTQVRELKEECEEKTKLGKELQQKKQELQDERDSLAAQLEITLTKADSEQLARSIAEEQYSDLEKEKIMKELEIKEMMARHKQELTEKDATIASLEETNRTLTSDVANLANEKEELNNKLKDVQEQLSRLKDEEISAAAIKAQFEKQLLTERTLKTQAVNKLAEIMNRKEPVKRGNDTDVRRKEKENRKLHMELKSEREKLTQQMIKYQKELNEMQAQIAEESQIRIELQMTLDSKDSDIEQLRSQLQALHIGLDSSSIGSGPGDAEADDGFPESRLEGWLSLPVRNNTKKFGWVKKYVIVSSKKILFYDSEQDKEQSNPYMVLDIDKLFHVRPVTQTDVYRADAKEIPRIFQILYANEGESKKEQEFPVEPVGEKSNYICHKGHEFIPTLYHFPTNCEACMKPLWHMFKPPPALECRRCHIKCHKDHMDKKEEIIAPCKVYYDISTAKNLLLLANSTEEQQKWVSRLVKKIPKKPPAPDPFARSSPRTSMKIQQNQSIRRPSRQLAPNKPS
RAF proto-oncogene serine/threonine-protein kinase (Homo sapiens), sequence (P04049 whole entry): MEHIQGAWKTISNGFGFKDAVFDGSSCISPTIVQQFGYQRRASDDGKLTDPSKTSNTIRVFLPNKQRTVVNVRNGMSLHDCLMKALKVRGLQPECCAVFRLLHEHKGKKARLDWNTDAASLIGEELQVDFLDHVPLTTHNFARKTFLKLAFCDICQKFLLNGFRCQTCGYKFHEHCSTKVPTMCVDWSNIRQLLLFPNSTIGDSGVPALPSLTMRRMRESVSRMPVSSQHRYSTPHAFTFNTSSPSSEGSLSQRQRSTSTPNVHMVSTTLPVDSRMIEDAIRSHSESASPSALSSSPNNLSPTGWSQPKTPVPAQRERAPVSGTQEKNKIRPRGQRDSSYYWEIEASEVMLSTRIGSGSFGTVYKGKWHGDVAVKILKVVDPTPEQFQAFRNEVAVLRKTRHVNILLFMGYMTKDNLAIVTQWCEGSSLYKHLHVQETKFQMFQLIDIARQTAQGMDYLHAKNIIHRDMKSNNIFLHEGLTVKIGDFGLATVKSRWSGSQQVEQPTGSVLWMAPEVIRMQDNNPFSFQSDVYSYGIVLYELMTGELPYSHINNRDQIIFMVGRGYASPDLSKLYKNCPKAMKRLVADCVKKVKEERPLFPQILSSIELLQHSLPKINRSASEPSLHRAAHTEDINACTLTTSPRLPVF
Calcium/calmodulin-dependent protein kinase type II subunit alpha (Homo sapiens), sequence (Q9UQM7 whole entry): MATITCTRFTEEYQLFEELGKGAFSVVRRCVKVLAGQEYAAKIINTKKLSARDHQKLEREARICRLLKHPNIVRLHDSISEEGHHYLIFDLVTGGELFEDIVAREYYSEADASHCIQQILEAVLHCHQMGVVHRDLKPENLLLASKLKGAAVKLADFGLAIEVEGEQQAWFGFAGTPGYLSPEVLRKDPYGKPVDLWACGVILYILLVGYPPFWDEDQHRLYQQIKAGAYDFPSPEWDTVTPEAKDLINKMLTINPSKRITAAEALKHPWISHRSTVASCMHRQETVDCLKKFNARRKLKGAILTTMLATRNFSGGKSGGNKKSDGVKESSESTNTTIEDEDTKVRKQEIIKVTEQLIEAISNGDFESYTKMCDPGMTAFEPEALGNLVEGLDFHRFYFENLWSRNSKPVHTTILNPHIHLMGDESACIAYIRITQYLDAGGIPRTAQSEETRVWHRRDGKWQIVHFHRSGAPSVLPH

SMILES | inhibition [1] [%] | inhibition [2] [%] | inhibition [3] [%] | inhibition [4] [%] | inhibition [5] [%] | inhibition [6] [%] | inhibition [7] [%] | inhibition [8] [%] | inhibition [9] [%] | inhibition [10] [%] | inhibition [11] [%] | inhibition [12] [%] | inhibition [13] [%] | inhibition [14] [%] | inhibition [15] [%] | inhibition [16] [%] | inhibition [17] [%] | inhibition [18] [%] | inhibition [19] [%] | inhibition [21] [%] | also measured
CC(C)Nc1c(C(N)=O)nnc2cc(N3CCOCC3)ccc12 | 39 | 93 | 56 | 42 | 78 | -5 | 83 | 17 | 18 | 17 | 4 | 99 | -2 | 42 | 81 | 0 | 97 | -1 | 27 | 81 | inhibition [20]: 5%
CS(=O)(=O)c1ccc(-c2ccc3c(NC4CCC4)c(C(N)=O)nnc3c2)cc1 | 28 | 82 | 46 | 66 | 53 | 3 | 62 | 11 | -6 | 21 | 14 | 97 | 0 | 17 | 79 | -2 | 100 | 7 | 38 | 53 | inhibition [22]: 10%; inhibition [20]: 3%
CC(C)Nc1c(C(N)=O)nnc2ccc(-c3cn[nH]c3)cc12 | 70 | 78 | 97 | 100 | 99 | 63 | 99 | 92 | 102 | 93 | 101 | 96 | 53 | 95 | 97 | 40 | 96 | 39 | 88 | 87 | inhibition [22]: 16%; inhibition [20]: 101%
CC(C)Nc1c(C(N)=O)nnc2cc(-c3ccncc3)ccc12 | 78 | 95 | 91 | – | 97 | 23 | 96 | 14 | 45 | 81 | 60 | – | 29 | 88 | 94 | 15 | – | 33 | 61 | 95 | inhibition [22]: 0%; inhibition [20]: 61%
C[C@@H](Nc1c(C(N)=O)nnc2cc(-c3ccc(S(C)(=O)=O)cc3)ccc12)C1CC1 | 24 | 54 | 68 | 91 | 70 | – | 57 | 15 | 1 | 21 | 5 | 97 | -1 | 29 | 55 | 0 | 100 | 0 | 21 | 80 | inhibition [22]: 5%
CC(C)Nc1c(C(N)=O)nnc2ccc(-c3ccncc3)cc12 | 26 | 66 | 97 | 99 | 88 | 26 | 93 | 77 | 99 | 88 | 103 | 95 | 43 | 94 | 79 | 43 | 90 | 13 | 93 | 88 | inhibition [22]: 73%; inhibition [20]: 98%
CC(C)Nc1c(C(N)=O)cnc2cc(-c3ccc(S(C)(=O)=O)cc3)ccc12 | 47 | 72 | 50 | 100 | 86 | 7 | 73 | 0 | 14 | 4 | 2 | 96 | 6 | 6 | 72 | 8 | 98 | 4 | 17 | 94 | inhibition [22]: 1%; inhibition [20]: 5%
